Measurements reported in ChEMBL document CHEMBL4834445, “Discovery of a new class of JMJD6 inhibitors and structure-activity relationship study” (Bioorg Med Chem Lett, 2021).
Active and inactive are the calls of the source. The rule behind the calls is not given here.

Experiments:
[1] = biological target: T1, Bifunctional arginine demethylase and lysyl-hydroxylase JMJD6 (Homo sapiens, UniProt Q6NYC1); assay: Inhibition of JMJD6 (unknown origin) by Succinate-Glo assay
[2] = biological target: T1, Bifunctional arginine demethylase and lysyl-hydroxylase JMJD6; assay: Inhibition of JMJD6 (unknown origin) at 100 uM by Succinate-Glo assay
[3] = biological target: T2, Lysine-specific demethylase 3B (Homo sapiens, UniProt Q7LBC6); assay: Inhibition of KDM3B (unknown origin) by Succinate-Glo assay
T2 sequence (Q7LBC6 whole entry): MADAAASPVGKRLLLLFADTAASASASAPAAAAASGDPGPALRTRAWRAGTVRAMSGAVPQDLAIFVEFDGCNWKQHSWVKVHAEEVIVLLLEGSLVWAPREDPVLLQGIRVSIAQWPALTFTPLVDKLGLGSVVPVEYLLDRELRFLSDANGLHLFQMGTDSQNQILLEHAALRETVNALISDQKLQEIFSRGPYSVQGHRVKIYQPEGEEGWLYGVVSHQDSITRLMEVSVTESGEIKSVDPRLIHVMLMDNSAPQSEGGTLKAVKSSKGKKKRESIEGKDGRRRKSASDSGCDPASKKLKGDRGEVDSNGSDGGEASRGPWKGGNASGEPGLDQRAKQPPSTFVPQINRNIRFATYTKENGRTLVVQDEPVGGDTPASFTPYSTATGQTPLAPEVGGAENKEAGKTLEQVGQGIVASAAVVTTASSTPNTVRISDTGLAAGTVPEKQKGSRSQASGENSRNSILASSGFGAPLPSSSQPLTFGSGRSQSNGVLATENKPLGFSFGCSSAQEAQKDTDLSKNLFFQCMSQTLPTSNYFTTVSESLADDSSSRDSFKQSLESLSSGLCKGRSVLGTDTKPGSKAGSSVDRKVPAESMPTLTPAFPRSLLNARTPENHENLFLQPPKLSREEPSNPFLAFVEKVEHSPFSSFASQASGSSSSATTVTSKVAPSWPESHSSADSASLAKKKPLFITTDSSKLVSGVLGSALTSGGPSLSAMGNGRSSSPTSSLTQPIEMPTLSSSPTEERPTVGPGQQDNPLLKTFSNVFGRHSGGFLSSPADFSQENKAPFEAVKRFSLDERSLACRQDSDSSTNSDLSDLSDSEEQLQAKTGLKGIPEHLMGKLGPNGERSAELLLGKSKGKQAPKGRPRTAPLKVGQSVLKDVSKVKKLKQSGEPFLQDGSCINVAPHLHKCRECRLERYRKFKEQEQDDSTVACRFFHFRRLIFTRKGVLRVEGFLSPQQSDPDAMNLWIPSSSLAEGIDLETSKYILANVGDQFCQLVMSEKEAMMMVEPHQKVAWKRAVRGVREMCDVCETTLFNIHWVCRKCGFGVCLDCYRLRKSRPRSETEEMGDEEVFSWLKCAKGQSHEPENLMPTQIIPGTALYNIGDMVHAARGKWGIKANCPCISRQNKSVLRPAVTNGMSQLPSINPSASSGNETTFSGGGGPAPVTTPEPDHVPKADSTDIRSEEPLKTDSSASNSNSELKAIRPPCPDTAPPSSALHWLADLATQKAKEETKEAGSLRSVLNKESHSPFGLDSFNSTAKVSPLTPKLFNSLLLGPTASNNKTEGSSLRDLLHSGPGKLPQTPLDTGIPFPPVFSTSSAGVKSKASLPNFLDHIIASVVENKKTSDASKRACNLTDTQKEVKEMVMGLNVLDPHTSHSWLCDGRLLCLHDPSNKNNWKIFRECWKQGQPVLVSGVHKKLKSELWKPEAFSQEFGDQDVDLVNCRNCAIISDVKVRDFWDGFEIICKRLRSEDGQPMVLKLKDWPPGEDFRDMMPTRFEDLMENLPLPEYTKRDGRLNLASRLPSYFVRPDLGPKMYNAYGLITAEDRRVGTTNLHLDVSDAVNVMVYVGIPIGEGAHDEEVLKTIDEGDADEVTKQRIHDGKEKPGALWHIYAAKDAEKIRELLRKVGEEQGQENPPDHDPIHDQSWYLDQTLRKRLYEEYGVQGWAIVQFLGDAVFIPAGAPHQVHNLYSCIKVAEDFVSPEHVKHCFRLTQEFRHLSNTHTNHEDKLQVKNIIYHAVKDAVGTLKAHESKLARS

[4] = biological target: T3, Bifunctional peptidase and (3S)-lysyl hydroxylase JMJD7 (Homo sapiens, UniProt P0C870); assay: Binding affinity to JMJD7 (unknown origin) by differential scanning fluorimetry
T3 sequence (P0C870 whole entry): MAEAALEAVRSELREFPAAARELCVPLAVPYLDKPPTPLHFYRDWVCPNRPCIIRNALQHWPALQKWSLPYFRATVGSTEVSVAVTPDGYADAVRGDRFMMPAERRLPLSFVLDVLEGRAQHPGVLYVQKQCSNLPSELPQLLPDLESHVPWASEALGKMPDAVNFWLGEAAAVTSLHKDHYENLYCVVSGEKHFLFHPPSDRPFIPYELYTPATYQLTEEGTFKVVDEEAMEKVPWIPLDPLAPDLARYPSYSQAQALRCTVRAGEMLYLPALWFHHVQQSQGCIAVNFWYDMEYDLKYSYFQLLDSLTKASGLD

[5] = biological target: T2, Lysine-specific demethylase 3B; assay: Binding affinity to KDM3B (unknown origin) by differential scanning fluorimetry
[6] = biological target: T4, Lysine-specific demethylase 5A (Homo sapiens, UniProt P29375); assay: Binding affinity to KDM5A (unknown origin) by differential scanning fluorimetry
T4 sequence (P29375 whole entry): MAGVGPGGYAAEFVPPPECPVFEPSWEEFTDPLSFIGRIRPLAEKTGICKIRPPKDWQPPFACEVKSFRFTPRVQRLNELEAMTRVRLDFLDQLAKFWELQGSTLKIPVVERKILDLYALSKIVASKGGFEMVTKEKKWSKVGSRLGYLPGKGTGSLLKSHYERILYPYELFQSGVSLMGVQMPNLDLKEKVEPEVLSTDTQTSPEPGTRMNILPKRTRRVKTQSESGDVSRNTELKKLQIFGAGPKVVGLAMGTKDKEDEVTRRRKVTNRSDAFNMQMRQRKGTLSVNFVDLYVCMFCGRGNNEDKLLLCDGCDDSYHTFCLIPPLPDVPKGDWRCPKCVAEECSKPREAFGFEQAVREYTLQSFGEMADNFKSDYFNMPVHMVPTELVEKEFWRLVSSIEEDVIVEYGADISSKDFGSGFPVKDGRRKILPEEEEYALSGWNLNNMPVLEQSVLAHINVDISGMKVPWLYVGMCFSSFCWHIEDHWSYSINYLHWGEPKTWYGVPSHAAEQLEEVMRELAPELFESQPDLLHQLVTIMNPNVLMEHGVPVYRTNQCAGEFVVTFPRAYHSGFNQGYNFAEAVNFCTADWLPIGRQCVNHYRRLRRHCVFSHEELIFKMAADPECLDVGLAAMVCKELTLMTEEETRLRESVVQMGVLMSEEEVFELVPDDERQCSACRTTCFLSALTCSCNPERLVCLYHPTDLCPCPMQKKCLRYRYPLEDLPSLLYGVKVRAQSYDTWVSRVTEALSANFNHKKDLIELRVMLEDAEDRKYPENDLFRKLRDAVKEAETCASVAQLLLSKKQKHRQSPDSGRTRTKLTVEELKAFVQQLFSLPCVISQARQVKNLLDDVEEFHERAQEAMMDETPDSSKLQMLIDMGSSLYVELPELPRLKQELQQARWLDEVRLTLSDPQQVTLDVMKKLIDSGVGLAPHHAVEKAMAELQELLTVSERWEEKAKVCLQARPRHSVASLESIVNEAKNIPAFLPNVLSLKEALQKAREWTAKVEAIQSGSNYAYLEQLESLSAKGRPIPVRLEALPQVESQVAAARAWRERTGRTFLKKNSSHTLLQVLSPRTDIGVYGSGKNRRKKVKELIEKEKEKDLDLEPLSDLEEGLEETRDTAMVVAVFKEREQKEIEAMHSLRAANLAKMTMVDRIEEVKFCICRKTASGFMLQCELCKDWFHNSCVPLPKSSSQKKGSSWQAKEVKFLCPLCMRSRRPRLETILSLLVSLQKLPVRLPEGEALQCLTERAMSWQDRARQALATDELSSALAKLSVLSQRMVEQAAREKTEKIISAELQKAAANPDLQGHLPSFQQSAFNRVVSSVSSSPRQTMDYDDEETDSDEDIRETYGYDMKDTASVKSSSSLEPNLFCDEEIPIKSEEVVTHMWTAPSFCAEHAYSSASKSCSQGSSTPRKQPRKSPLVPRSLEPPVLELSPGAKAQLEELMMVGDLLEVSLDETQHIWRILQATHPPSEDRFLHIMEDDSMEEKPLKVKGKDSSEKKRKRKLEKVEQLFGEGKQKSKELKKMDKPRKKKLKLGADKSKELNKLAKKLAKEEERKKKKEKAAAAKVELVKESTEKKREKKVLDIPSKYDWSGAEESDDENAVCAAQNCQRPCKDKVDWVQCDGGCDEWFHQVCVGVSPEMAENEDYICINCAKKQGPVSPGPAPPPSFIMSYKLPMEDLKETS

[7] = biological target: T1, Bifunctional arginine demethylase and lysyl-hydroxylase JMJD6; assay: Binding affinity to JMJD6 (unknown origin) assessed as thermal stability of the protein by measuring change in melting temperature by differential scanning fluorimetry
[8] = biological target: T5, RNA demethylase ALKBH5 (Homo sapiens, UniProt Q6P6C2); assay: Inhibition of ALKBH5 (unknown origin) by Succinate-Glo assay
Target sequence in this assay (Q6P6C2 whole entry): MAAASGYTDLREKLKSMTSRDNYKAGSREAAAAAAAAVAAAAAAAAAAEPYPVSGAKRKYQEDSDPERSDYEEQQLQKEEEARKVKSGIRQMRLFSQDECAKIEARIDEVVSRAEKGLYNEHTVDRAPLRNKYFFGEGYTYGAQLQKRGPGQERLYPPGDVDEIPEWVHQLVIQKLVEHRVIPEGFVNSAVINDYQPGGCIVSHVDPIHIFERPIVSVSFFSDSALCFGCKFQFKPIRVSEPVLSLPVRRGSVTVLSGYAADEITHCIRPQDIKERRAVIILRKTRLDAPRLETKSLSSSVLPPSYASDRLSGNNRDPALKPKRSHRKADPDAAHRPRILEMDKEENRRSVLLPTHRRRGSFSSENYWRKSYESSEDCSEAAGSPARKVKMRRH

[9] = biological target: T3, Bifunctional peptidase and (3S)-lysyl hydroxylase JMJD7; assay: Inhibition of JMJD7 (unknown origin) by Succinate-Glo assay
[10] = biological target: T5, RNA demethylase ALKBH5; assay: Binding affinity to ALKBH5 (unknown origin) by differential scanning fluorimetry
Target sequence in this assay (Q6P6C2 2-394 limits assumed): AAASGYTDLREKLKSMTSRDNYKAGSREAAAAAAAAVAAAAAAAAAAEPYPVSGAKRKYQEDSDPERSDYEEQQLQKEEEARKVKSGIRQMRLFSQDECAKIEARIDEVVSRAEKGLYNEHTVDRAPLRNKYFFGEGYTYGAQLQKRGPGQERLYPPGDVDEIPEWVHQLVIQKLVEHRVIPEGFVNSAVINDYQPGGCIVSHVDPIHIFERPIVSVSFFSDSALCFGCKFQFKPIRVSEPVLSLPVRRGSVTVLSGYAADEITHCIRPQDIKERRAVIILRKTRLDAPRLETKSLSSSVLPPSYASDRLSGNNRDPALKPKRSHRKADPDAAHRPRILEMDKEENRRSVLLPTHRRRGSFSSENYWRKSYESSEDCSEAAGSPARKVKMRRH

[11] = biological target: T1, Bifunctional arginine demethylase and lysyl-hydroxylase JMJD6; assay: Binding affinity to JMJD6 in human HeLa cells assessed as inhibition of temperature-dependent protein degradation by CETSA; type: cell-based
[12] = biological target: T4, Lysine-specific demethylase 5A; assay: Inhibition of KDM5A (unknown origin) by AlphalLISA assay
[13] = biological target: T6, Lysine-specific demethylase 4D (Homo sapiens) (UniProt Q6B0I6); assay: Binding affinity to KDM4D (unknown origin) by differential scanning fluorimetry
T6 sequence (whole entry): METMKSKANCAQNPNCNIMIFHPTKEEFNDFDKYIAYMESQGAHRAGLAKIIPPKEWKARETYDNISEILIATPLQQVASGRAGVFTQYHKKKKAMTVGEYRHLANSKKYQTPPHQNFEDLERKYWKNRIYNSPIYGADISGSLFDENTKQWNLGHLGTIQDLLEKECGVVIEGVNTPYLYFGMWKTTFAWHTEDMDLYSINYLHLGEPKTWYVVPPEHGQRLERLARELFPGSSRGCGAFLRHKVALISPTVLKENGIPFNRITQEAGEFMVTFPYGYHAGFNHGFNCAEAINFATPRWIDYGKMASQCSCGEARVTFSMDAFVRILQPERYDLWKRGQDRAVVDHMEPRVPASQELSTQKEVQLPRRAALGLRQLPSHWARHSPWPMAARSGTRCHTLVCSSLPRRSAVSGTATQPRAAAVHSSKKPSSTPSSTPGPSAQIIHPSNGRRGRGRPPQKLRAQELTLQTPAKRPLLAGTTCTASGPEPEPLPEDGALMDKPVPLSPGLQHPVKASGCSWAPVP

[14] = biological target: T7, Lysine-specific demethylase 4D (Homo sapiens, UniProt Q6B0I6); assay: Inhibition of KDM4D (unknown origin) by Succinate-Glo assay
T7 sequence (Q6B0I6 whole entry): T6 sequence (whole entry)

[15] = biological target: T1, Bifunctional arginine demethylase and lysyl-hydroxylase JMJD6; assay: Inhibition of JMJD6 (unknown origin)

Row | IC50 [1] | Compound | also measured
1 | 22.9 µM | CCOC(=O)c1ccnc(-c2nn(C)cc2-c2cccc(C)c2)c1 | –
2 | 43.5 µM | Cn1ccc(-c2cc(C(=O)OC3CCCC3)ccn2)n1 | –
3 | 24.9 µM | CCOC(=O)c1ccnc(-c2nn(C)cc2-c2ccc(OC)nc2)c1 | –
4 | 1.34 µM | CCCOC(=O)c1ccnc(-c2ccn(C)n2)c1 | –
5 | 15.2 µM | CCOC(=O)c1ccnc(-c2nn(C)cc2-c2ccccc2)c1 | –
6 | 1.45 µM | Cn1ccc(-c2cc(C(=O)OCCF)ccn2)n1 | –
7 | 1.12 µM | Cn1ccc(-c2cc(C(=O)OCC(F)F)ccn2)n1 | –
8 | 12.9 µM | Cn1ccc(-c2cc(-c3cnn[nH]3)ccn2)n1 | –
9 | > 100 µM | CCOC(=O)c1ccnc(-c2ccnn2C)c1 | –
10 | 19.9 µM | CCOC(=O)c1ccnc(-c2cc[nH]n2)c1 | inhibition [2]: 76%; inhibition [1]: Dose-Dependent Effect
11 | > 100 µM | Cn1ccc(-c2cc(C(N)=O)ccn2)n1 | –
12 | > 100 µM | CCOC(=O)c1cc(C)nc(-c2ccn(C)n2)c1 | –
13 | 0.914 µM | CCOC(=O)c1ccnc(-c2ccn(C)n2)c1 | –
14 | > 100 µM | CCOC(=O)c1ccnc(-c2nn(C)cc2-c2ccc3occc3c2)c1 | –
15 | 3.8 µM | Cn1ccc(-c2cc(C(=O)OCC3CC3)ccn2)n1 | –
16 | 20.4 µM | CCOC(=O)c1ccnc(-c2nn(C)cc2-c2cccc(N3CCOCC3)c2)c1 | –
17 | 0.681 µM | Cn1ccc(-c2cc(C(=O)OCC(F)(F)F)ccn2)n1 | IC50 [3]: > 100 µM; Activity [4]: inactive; Activity [5]: inactive; Activity [6]: inactive; ΔTm [7]: 1.94 °C; IC50 [8]: > 100 µM; IC50 [9]: > 100 µM; Activity [10]: inactive; Activity [11]: Active; IC50 [12]: > 100 µM; Activity [13]: inactive; IC50 [14]: > 100 µM

Row | IC50 [1] | Compound | also measured
18 | > 100 µM | CCOC(=O)c1ccc(-c2ccn(C)n2)nc1 | –
19 | > 100 µM | CCNC(=O)c1ccnc(-c2ccn(C)n2)c1 | –
20 | > 100 µM | CCOC(=O)c1ccnc(-c2ccn(C(C)C)n2)c1 | –
21 | 1.71 µM | Cn1ccc(-c2cc(C(=O)O)ccn2)n1 | –
22 | > 100 µM | CCOC(=O)c1cccc(-c2ccn(C)n2)c1 | –
23 | > 100 µM | CCOC(=O)c1cccnc1-c1ccn(C)n1 | –
24 | > 100 µM | CCOC(=O)c1cc(-c2ccn(C)n2)ncc1C(F)(F)F | –
25 | 2.53 µM | Cn1ccc(-c2cc(C(=O)OCC3CCC3)ccn2)n1 | –
26 | 5.69 µM | Cn1ccc(-c2cc(C(=O)OCc3ccccc3)ccn2)n1 | –
27 | > 100 µM | CCOC(=O)c1ccnc(-c2nn(C)cc2-c2cc(OC)cc(OC)c2)c1 | –
28 | 1.86 µM | COC(=O)c1ccnc(-c2ccn(C)n2)c1 | –
29 | 1.94 µM | CC(C)OC(=O)c1ccnc(-c2ccn(C)n2)c1 | –
30 | 2.43 µM | CCOC(=O)c1ccnc(-c2ccn(CC)n2)c1 | –
31 | 11.8 µM | CC(C)COC(=O)c1ccnc(-c2ccn(C)n2)c1 | –
32 | > 100 µM | CCOC(=O)c1ccnc(-c2nn(C)cc2-c2cc3ccccc3c3ccccc23)c1 | –
33 | – | Cc1cc(O)nc(NN=Cc2ccccc2O)n1 | IC50 [15]: 0.78 µM
34 | 23.1 µM | CCOC(=O)c1cc(-c2ccn(C)n2)ncc1F | –
